Laboratory results published in PubChem BioAssay AID1259407 (Chemical Carcinogenesis Research Information System (CCRIS), 2018).
The source made the active and inactive calls. How the calls were made is not given here.

Test system: CCRIS mutagenicity, Ames/micronucleus/aberration tests
Assay: CCRIS mutagenicity studies
[1] = Test System: AMES SALMONELLA TYPHIMURIUM, Strain/Indicator: TA98, Metabolic Activation: NONE, Method: PREINCUBATION
[2] = Test System: AMES SALMONELLA TYPHIMURIUM, Strain/Indicator: TA100, Metabolic Activation: NONE, Method: PREINCUBATION
[3] = Test System: AMES SALMONELLA TYPHIMURIUM, Strain/Indicator: TA1535, Metabolic Activation: NONE, Method: PREINCUBATION
[4] = Test System: AMES SALMONELLA TYPHIMURIUM, Strain/Indicator: TA1537, Metabolic Activation: NONE, Method: PREINCUBATION
[5] = Test System: AMES SALMONELLA TYPHIMURIUM, Strain/Indicator: TA100, Metabolic Activation: NONE, Method: STANDARD PLATE
[6] = Test System: AMES SALMONELLA TYPHIMURIUM, Strain/Indicator: TA102, Metabolic Activation: NONE, Method: PREINCUBATION

NC(Cc1ccc(F)cc1)C(=O)O (centres undefined)
mutagenic call (Test System: AMES SALMONELLA TYPHIMURIUM, Strain/Indicator: TA98, Metabolic Activation: HAMSTER, LIVER, S-9, AROCLOR 1254 (10%), Method: PREINCUBATION): inactive; negative | mutagenic call [1]: inactive; negative | mutagenic call (Test System: AMES SALMONELLA TYPHIMURIUM, Strain/Indicator: TA98, Metabolic Activation: RAT, LIVER, S-9, AROCLOR 1254 (10%), Method: PREINCUBATION): inactive; negative | mutagenic call (Test System: AMES SALMONELLA TYPHIMURIUM, Strain/Indicator: TA100, Metabolic Activation: HAMSTER, LIVER, S-9, AROCLOR 1254 (10%), Method: PREINCUBATION): inactive; negative | mutagenic call [2]: inactive; negative | mutagenic call (Test System: AMES SALMONELLA TYPHIMURIUM, Strain/Indicator: TA100, Metabolic Activation: RAT, LIVER, S-9, AROCLOR 1254 (10%), Method: PREINCUBATION): inactive; negative | mutagenic call (Test System: AMES SALMONELLA TYPHIMURIUM, Strain/Indicator: TA1535, Metabolic Activation: HAMSTER, LIVER, S-9, AROCLOR 1254 (10%), Method: PREINCUBATION): inactive; negative | mutagenic call [3]: inactive; negative | mutagenic call (Test System: AMES SALMONELLA TYPHIMURIUM, Strain/Indicator: TA1535, Metabolic Activation: RAT, LIVER, S-9, AROCLOR 1254 (10%), Method: PREINCUBATION): inactive; negative | mutagenic call (Test System: AMES SALMONELLA TYPHIMURIUM, Strain/Indicator: TA1537, Metabolic Activation: HAMSTER, LIVER, S-9, AROCLOR 1254 (10%), Method: PREINCUBATION): inactive; negative | mutagenic call [4]: inactive; negative | mutagenic call (Test System: AMES SALMONELLA TYPHIMURIUM, Strain/Indicator: TA1537, Metabolic Activation: RAT, LIVER, S-9, AROCLOR 1254 (10%), Method: PREINCUBATION): inactive; negative

CCCCCCCCCCCCCCCc1cccc(O)c1C(=O)O
mutagenic call (End Point: In vivo micronucleus, Test System: Peripheral blood erythrocytes, Species: Mouse, Strain/Sex: CD-1, Route: Oral): inactive; negative

CN(C)N=Nc1ccc(C(=O)O)cc1
mutagenic call (Test System: AMES SALMONELLA TYPHIMURIUM, Strain/Indicator: G46, Metabolic Activation: NONE, Method: STANDARD PLATE): inactive; negative | mutagenic call (Test System: AMES SALMONELLA TYPHIMURIUM, Strain/Indicator: G46, Metabolic Activation: RAT, LIVER, S-9, PHENOBARBITAL, Method: STANDARD PLATE): active; positive | mutagenic call (Test System: AMES SALMONELLA TYPHIMURIUM, Strain/Indicator: TA92, Metabolic Activation: NONE, Method: STANDARD PLATE): active; positive | mutagenic call (Test System: AMES SALMONELLA TYPHIMURIUM, Strain/Indicator: TA92, Metabolic Activation: RAT, LIVER, S-9, PHENOBARBITAL, Method: PREINCUBATION): inactive; negative | mutagenic call (Test System: AMES SALMONELLA TYPHIMURIUM, Strain/Indicator: TA92, Metabolic Activation: RAT, LIVER, S-9, PHENOBARBITAL, Method: STANDARD PLATE): inactive; negative | mutagenic call [5]: inactive; negative | mutagenic call (Test System: AMES SALMONELLA TYPHIMURIUM, Strain/Indicator: TA100, Metabolic Activation: RAT, LIVER, S-9, PHENOBARBITAL, Method: STANDARD PLATE): inactive; negative | mutagenic call (Test System: E. COLI, Strain/Indicator: TM6, Metabolic Activation: NONE, Method: STANDARD PLATE): active; positive | mutagenic call (Test System: E. COLI, Strain/Indicator: TM6, Metabolic Activation: RAT, LIVER, S-9 PHENOBARBITAL, Method: STANDARD PLATE): active; positive | mutagenic call (Test System: E. COLI, Strain/Indicator: TM9, Metabolic Activation: NONE, Method: STANDARD PLATE): active; positive | mutagenic call (Test System: E. COLI, Strain/Indicator: TM9, Metabolic Activation: RAT, LIVER, S-9 PHENOBARBITAL, Method: STANDARD PLATE): active; positive | mutagenic call (Test System: E. COLI, Strain/Indicator: WP2, Metabolic Activation: NONE, Method: STANDARD PLATE): active; positive | mutagenic call (Test System: E. COLI, Strain/Indicator: WP2, Metabolic Activation: RAT, LIVER, S-9 PHENOBARBITAL, Method: STANDARD PLATE): active; positive | mutagenic call (Test System: E. COLI, Strain/Indicator: WP2 UVRA, Metabolic Activation: NONE, Method: STANDARD PLATE): active; positive | mutagenic call (Test System: E. COLI, Strain/Indicator: WP2 UVRA, Metabolic Activation: RAT, LIVER, S-9 PHENOBARBITAL, Method: STANDARD PLATE): active; positive

NCCCN1CCN(CCCN)CC1
mutagenic call [1]: inactive; negative | mutagenic call (Test System: AMES SALMONELLA TYPHIMURIUM, Strain/Indicator: TA98, Metabolic Activation: RAT LIVER S-9, PHENOBARBITAL AND BETA-NAPHTHOFLAVONE, Method: PREINCUBATION): inactive; negative | mutagenic call [2]: inactive; negative | mutagenic call (Test System: AMES SALMONELLA TYPHIMURIUM, Strain/Indicator: TA100, Metabolic Activation: RAT LIVER S-9, PHENOBARBITAL AND BETA-NAPHTHOFLAVONE, Method: PREINCUBATION): inactive; negative | mutagenic call [6]: inactive; negative | mutagenic call (Test System: AMES SALMONELLA TYPHIMURIUM, Strain/Indicator: TA102, Metabolic Activation: RAT LIVER S-9, PHENOBARBITAL AND BETA-NAPHTHOFLAVONE, Method: PREINCUBATION): inactive; negative | mutagenic call (Test System: AMES SALMONELLA TYPHIMURIUM, Strain/Indicator: TA104, Metabolic Activation: NONE, Method: PREINCUBATION): inactive; negative | mutagenic call (Test System: AMES SALMONELLA TYPHIMURIUM, Strain/Indicator: TA104, Metabolic Activation: RAT LIVER S-9, PHENOBARBITAL AND BETA-NAPHTHOFLAVONE, Method: PREINCUBATION): inactive; negative | mutagenic call [3]: inactive; negative | mutagenic call (Test System: AMES SALMONELLA TYPHIMURIUM, Strain/Indicator: TA1535, Metabolic Activation: RAT LIVER S-9, PHENOBARBITAL AND BETA-NAPHTHOFLAVONE, Method: PREINCUBATION): inactive; negative | mutagenic call [4]: inactive; negative | mutagenic call (Test System: AMES SALMONELLA TYPHIMURIUM, Strain/Indicator: TA1537, Metabolic Activation: RAT LIVER S-9, PHENOBARBITAL AND BETA-NAPHTHOFLAVONE, Method: PREINCUBATION): inactive; negative | mutagenic call (Test System: E.COLI, Strain/Indicator: WP2UVRA/PKM101, Metabolic Activation: NONE, Method: PREINCUBATION): inactive; negative | mutagenic call (Test System: E.COLI, Strain/Indicator: WP2UVRA/PKM101, Metabolic Activation: RAT LIVER S-9, PHENOBARBITAL AND BETA-NAPHTHOFLAVONE, Method: PREINCUBATION): inactive; negative | mutagenic call (Test System: E.COLI, Strain/Indicator: WP2UVRA, Metabolic Activation: NONE, Method: PREINCUBATION): inactive; negative | mutagenic call (Test System: E.COLI, Strain/Indicator: WP2UVRA, Metabolic Activation: RAT LIVER S-9, PHENOBARBITAL AND BETA-NAPHTHOFLAVONE, Method: PREINCUBATION): inactive; negative

CC(=O)Nc1cc2c(cc1O)-c1ccccc1C2
mutagenic call (Test System: AMES SALMONELLA TYPHIMURIUM, Strain/Indicator: TA98, Metabolic Activation: RAT, LIVER, S-9, AROCLOR 1254, Method: STANDARD PLATE): inactive; negative

ClCc1ccc2c3c(cccc13)-c1ccccc1-2
mutagenic call (Test System: AMES SALMONELLA TYPHIMURIUM, Strain/Indicator: TA98, Metabolic Activation: NONE, Method: STANDARD PLATE): active; positive | mutagenic call [5]: active; positive

CCCN(CCCC(=O)O)N=O
mutagenic call (Test System: AMES SALMONELLA TYPHIMURIUM, Strain/Indicator: TA1535, Metabolic Activation: RAT, LIVER, S-9, KC500 OR PHENOBARBITAL, Method: LIQUID SUSPENSION): active; positive

O=C(O)/C=C/c1ccc(Cl)cc1
mutagenic call [2]: inactive; negative | mutagenic call (Test System: AMES SALMONELLA TYPHIMURIUM, Strain/Indicator: TA100, Metabolic Activation: RAT, LIVER, S-9, AROCLOR 1254, Method: PREINCUBATION): inactive; negative

CC(C)(C)[N+](=O)[O-]
mutagenic call [2]: inactive; negative | mutagenic call (Test System: AMES SALMONELLA TYPHIMURIUM, Strain/Indicator: TA100, Metabolic Activation: RAT, LIVER, S-9, AROCLOR, Method: PREINCUBATION): inactive; negative | mutagenic call [6]: inactive; negative | mutagenic call (Test System: AMES SALMONELLA TYPHIMURIUM, Strain/Indicator: TA102, Metabolic Activation: RAT, LIVER, S-9, AROCLOR, Method: PREINCUBATION): inactive; negative
